The values below come from US20250066350A1, “AROMATIC HETEROCYCLE-SUBSTITUTED COMPOUNDS, AND PREPARATION METHOD THEREFOR AND USE THEREOF” (Innovstone Therapeutics Limited, priority 2021, published 2025).

Where two headings read alike, the source gives them in different places.

For test [1], the system named is LoVo cells. As to the kind of experiment: LoVo cell proliferation experiment (CellTiter-Glo, intracellular ATP). It counts as cell-based. To be noted: LoVo human colon cancer cells, 4 days, read-out: IC50 for inhibition of LoVo cell proliferation. On the procedure:
The following method is used to evaluate the inhibitory effect of the compounds of the present invention on LoVo cell proliferation according to the IC50 values by means of detecting the intracellular ATP content. The experimental method is briefly described as follows:
1. LoVo, human colon cancer tumor cells (Co-bioer, CBP60032)
LoVo cells were cultured in F-12K medium containing 10% FBS and passaged 2 to 3 times a week at a split ratio of 1:3 or 1:5. During passage, the cells were trypsinized and transferred to a centrifuge tube. The tube was centrifuged at 1000 rpm for 5 minutes, the supernatant medium was discarded, and fresh medium was added to resuspend the cells. 100 μL of cell suspension at a density of 1.5×10^4 cells/mL was added to a 96-well cell culture plate, and 100 μL of complete medium only was added to the periphery wells of the 96-well plate. The culture plate was incubated in an incubator for 24 hours (37° C., 5% CO2).
The sample to be tested was diluted to 1 mM with DMSO, diluted 3-fold serially to 8 concentrations, and prepared to 200× dilution with cell culture medium. Blank and control wells were set. 5 μL of the solution containing the compound to be tested prepared in gradient concentrations was added to 95 μL of fresh medium. 100 μL of 1× culture medium containing the compound was added to the culture plate. The culture plate was incubated in an incubator for 4 days (37° C., 5% CO2). 50 μL of CellTiter-Glo reagent was added to each well of the 96-well cell culture plate, and the plate was placed at room temperature in the dark for 5-10 min. The chemiluminescent signal values were read in PHERAstar, and data were processed using GraphPad software.
The inhibitory effect of the compounds of the present invention on LoVo cell proliferation can be determined by the test described above, and the measured IC50 values are shown in Table 2.

The test system of test [2] is SNU-601 cells. The test can be described thus: SNU-601 cell proliferation experiment (CellTiter-Glo, intracellular ATP). Format: cell-based. The following applies: SNU-601 human gastric cancer cells, 5 days, read-out: IC50 for inhibition of SNU-601 cell proliferation. In a few lines:
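Human gastric cancer cells in RPMI 1640/10% FBS plated and settled 24 h before adding compounds in a 10-point 3-fold series (2 mM DMSO top stock). Exposure 5 days at 37 °C, 5% CO2. Viability by CellTiter-Glo luminescence (ATP); IC50 from the curves.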
For orientation: ATP-based viability assays read luminescence as a measure of living cells.

Test [3] concerns the target ATR enzyme (Homo sapiens (Human), UniProt Q13535). As to the kind of experiment: Inhibitory effect on ATR enzyme (HTRF, phospho-P53). The following applies: 90 minutes incubation, 150 nM ATP final; read-out: IC50 for ATR enzyme inhibition. Format: biochemical. A digest of the protocol: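 Recombinant ATR phosphorylating GST-tagged P53 with 150 nM ATP final (40 nM final P53), 10-point compound series from 2985.0 to 0.15 nM, 0.498% DMSO, 90 min at room temperature. Detection with anti-phospho-p53-Eu/anti-GST-d2 overnight at 4° C in dark; HTRF 665/612 ratio used to derive IC50.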
For orientation: TR-FRET usually uses a lanthanide donor and a delayed reading to cut background.

Chain of ATR enzyme (Q13535 whole entry): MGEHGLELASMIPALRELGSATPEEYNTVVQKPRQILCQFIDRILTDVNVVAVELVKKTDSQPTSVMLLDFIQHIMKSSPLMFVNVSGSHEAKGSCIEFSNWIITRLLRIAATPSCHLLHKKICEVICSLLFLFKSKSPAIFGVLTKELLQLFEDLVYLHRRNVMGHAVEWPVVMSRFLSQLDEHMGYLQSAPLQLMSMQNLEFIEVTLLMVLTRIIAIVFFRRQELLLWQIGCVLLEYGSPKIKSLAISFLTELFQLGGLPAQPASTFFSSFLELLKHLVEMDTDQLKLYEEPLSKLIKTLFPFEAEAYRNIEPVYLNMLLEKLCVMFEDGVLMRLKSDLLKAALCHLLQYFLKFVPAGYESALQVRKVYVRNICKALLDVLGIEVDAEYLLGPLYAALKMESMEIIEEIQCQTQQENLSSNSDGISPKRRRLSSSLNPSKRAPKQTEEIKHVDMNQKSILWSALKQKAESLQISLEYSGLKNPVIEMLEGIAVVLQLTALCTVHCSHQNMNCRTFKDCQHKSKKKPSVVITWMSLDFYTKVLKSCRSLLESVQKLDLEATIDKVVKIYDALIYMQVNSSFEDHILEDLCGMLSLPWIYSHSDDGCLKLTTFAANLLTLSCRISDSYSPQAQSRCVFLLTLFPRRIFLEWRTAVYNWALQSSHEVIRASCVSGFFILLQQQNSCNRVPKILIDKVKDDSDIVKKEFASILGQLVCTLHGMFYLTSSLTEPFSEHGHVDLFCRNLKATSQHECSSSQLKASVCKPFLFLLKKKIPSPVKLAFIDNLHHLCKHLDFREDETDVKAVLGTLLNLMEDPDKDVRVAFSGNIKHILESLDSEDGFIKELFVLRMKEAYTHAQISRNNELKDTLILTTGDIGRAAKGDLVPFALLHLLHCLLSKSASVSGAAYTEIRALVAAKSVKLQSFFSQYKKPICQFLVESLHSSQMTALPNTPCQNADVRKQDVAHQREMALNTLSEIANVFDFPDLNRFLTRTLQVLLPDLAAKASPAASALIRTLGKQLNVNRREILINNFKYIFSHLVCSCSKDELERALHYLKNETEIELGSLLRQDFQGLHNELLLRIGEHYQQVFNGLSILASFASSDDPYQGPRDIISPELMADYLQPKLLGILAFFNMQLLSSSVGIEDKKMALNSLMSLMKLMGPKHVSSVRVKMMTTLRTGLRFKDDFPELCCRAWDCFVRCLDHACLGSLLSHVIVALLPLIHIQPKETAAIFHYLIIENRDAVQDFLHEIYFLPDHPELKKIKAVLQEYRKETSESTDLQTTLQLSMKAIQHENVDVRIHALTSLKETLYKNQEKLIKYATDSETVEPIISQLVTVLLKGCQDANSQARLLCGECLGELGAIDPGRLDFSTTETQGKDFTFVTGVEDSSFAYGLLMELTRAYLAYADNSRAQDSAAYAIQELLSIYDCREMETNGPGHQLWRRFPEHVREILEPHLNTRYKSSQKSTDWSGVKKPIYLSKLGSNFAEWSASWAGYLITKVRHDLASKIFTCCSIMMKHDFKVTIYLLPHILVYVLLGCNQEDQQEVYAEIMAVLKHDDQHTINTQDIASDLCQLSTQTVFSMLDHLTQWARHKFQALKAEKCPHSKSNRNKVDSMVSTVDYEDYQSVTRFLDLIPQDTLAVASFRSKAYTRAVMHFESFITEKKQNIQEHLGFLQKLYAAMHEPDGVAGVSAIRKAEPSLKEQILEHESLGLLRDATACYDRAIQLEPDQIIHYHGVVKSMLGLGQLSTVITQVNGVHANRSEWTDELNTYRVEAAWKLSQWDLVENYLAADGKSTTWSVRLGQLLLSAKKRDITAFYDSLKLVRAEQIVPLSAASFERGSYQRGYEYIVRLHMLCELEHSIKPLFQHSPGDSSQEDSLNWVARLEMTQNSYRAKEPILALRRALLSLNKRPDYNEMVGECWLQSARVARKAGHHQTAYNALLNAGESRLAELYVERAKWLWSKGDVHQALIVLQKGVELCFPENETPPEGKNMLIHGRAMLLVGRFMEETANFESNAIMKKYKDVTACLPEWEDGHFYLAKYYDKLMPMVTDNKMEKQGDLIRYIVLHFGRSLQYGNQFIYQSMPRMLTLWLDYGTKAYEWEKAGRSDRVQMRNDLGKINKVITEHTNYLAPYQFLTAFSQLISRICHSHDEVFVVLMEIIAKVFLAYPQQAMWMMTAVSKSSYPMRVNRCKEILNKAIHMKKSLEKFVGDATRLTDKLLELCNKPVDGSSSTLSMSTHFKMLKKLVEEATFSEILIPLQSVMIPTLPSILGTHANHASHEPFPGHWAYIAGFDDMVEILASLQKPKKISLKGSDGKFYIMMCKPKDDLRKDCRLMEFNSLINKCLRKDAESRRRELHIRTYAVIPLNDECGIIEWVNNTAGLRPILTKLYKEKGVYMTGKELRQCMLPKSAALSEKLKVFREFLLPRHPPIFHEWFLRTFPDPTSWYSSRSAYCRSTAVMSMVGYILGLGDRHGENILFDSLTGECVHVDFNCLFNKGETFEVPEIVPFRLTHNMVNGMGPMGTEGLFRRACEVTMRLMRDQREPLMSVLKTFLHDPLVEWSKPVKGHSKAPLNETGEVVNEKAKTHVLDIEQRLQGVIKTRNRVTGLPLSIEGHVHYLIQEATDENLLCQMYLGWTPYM
Chain of ATR enzyme (Q8WXE1 whole entry partner): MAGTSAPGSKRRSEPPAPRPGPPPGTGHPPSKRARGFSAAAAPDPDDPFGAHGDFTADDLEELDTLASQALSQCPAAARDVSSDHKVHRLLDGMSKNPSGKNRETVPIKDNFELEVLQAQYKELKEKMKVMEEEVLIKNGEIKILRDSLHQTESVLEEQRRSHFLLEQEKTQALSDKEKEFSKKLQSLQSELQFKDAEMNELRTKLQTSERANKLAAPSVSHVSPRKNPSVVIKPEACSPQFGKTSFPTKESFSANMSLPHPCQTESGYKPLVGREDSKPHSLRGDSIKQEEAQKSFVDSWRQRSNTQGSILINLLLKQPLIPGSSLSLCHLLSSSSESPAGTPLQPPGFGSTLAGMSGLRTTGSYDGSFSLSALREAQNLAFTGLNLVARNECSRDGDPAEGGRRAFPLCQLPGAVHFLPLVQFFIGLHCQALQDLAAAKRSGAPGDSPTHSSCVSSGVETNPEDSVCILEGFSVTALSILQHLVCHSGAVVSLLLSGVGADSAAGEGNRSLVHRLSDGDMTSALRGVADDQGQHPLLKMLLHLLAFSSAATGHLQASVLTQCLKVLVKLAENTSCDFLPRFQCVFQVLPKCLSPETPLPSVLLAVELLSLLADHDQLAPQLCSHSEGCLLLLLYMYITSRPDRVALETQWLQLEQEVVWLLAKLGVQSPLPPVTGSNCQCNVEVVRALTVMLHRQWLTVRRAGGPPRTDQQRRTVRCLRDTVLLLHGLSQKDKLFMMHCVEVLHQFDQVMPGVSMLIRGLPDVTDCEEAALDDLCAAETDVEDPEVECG

As to `C[C@@H]1COCCN1c1cc(C2(O)CCC(C#N)CC2)c2cnn(-c3cc[nH]n3)c2n1` (stereo partly drawn) [RP103, reference compound], the results for the IC50 in test [1] (96 h), in test [2] (120 h) and in test [3] were 0.02 to 0.1 µM, 0.01 to 0.1 µM and at most 0.01 µM, respectively.

Turning to `C[C@@H]1COCCN1c1cc(-c2c(F)cc(N3CC4CCC(O4)C3=O)cc2F)c2cnn(-c3cc[nH]n3)c2n1` (stereo partly drawn) [Example 261], the IC50 was 0.02 to 0.1 µM in test [1] (96 h), 0.01 to 0.1 µM in test [2] (120 h) and at most 0.01 µM in test [3].

On to `C[C@@H]1COCCN1c1cc(-c2ccc(NC(=O)c3ccncc3)cc2)c2cnn(-c3cc[nH]n3)c2n1` [Example 148], for which the IC50 is 0.02 to 0.1 µM in test [1], 0.01 to 0.1 µM in test [2] and at most 0.01 µM in test [3].

Take `C[C@@H]1COCCN1c1cc([C@]2(O)C[C@H]3CC[C@@H](C2)O3)c2cnn(-c3ccn[nH]3)c2n1` [RP3500, reference compound]: the IC50 in test [1] (96 h) was 0.02 to 0.1 µM; in test [2] (120 h) it was 0.01 to 0.1 µM; in test [3], at most 0.01 µM.

As to `C[C@@H]1COCCN1c1cc(-c2ccc(NC(=O)N3CCCC3)c(C#N)c2)c2cnn(-c3cc[nH]n3)c2n1` [Example 228], the results for the IC50 in test [1] (96 h), in test [2] (120 h) and in test [3] were 0.02 to 0.1 µM, at most 0.01 µM and at most 0.01 µM, respectively.

Take `C#CC1CCC(O)(c2cc(N3CCOC[C@H]3C)nc3c2cnn3-c2cc[nH]n2)CC1` (stereo partly drawn) [Example 147, (R)-4-ethynyl-1-(6-(3-methylmorpholinyl)-1-(1H-pyrazolyl-3-yl)-1H-pyrazolyl[3,4-b]pyridin-4-yl)cyclohexanol]: the IC50 in test [1] (96 h) was at most 0.02 µM; in test [2] (120 h), at most 0.01 µM; in test [3], at most 0.01 µM.

Take `C[C@@H]1COCCN1c1cc(-c2ccc(N3CCCCS3(=O)=O)cc2F)c2cnn(-c3cc[nH]n3)c2n1` [Example 239]: the IC50 in test [1] (96 h) was 0.02 to 0.1 µM; in test [2] (120 h), 0.01 to 0.1 µM; in test [3] it was at most 0.01 µM.

`C[C@@H]1COCCN1c1cc(-c2ccc(NC(=O)c3cocn3)cc2)c2cnn(-c3cc[nH]n3)c2n1` [Example 164]: the results for the IC50 in test [1], in test [2] and in test [3] were 0.02 to 0.1 µM, 0.01 to 0.1 µM and at most 0.01 µM, respectively.
